Legend:
[1] = biological target: cruzain (Trypanosoma cruzi, UniProt P25779); experiment: biochemical; settings: for Cruzain 0’ Inhibition / Cruzain 10’ Inhibition: sheet "Screening results"
In short: (§1)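 Recombinant enzymes assayed by Z-Phe-Arg-AMC cleavage at 25 °C, fluorescence 340/440 nm over 5–7 min, with 10 min or no enzyme–compound preincubation.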

[2] = biological target: T1, TbrCatL (Trypanosoma brucei rhodesiense, UniProt Q95PM0); experiment: TbrCatL enzymatic inhibition assay (cleavage of fluorogenic substrate Z-FR-AMC); assay type: biochemical; settings: for TbrCatL 0’ Inhibition / TbrCatL 10’ Inhibition: sheet "Screening results"
T1 construct: Conor Caffrey (University of California San Diego)
In short: as §1

[3] = 0’ (no pre-incubation), sheet Screening results
[4] = 10’ (pre-incubation), sheet Screening results
[5] = 0’ (pre-incubation time), Pathogen Box screening results
[6] = 10’ (pre-incubation time), Pathogen Box screening results
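Note: at 5 µM compound concentration.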

T1 sequence (Q95PM0 entry or part of it): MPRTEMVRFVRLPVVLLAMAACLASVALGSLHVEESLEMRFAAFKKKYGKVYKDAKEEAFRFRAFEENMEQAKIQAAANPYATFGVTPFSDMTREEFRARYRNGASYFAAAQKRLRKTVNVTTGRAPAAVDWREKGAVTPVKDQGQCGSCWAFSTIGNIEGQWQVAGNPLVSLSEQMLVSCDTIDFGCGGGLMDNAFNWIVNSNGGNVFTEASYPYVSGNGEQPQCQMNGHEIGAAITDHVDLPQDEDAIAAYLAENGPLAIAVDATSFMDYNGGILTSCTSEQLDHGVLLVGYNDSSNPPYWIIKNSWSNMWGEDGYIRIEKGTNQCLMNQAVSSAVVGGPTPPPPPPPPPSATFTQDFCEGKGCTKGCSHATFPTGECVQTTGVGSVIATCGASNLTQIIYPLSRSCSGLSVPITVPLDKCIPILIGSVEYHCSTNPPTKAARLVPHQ
Chain of cruzain (P25779 123-337 limits assumed): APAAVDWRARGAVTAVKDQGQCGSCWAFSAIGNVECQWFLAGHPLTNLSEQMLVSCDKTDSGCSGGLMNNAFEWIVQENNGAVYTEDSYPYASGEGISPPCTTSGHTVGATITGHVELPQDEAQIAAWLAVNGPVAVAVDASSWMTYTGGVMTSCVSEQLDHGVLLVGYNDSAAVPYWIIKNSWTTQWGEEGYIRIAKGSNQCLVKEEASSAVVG

Row | Structure (SMILES) | Cruzain Inhibition 0’ [1, 3] | Cruzain Inhibition 10’ [1, 4] | TbrCatL Inhibition 0’ [2, 3] | TbrCatL Inhibition 10’ [2, 4] | also measured
1 | COc1cc(C2=NCCN2)ccc1-n1cc(-c2cccc(C3=NCCN3)c2)nn1 [MMV688474] |  |  |  |  | Cruzain 0’ Inhibition ([1]; 0’ (pre-incubation time)): 2.4%; Cruzain 10’ Inhibition ([1]; 10’ (pre-incubation time)): 13%; TbrCatL 0’ Inhibition ([2]; 0’ (pre-incubation time)): 10%; TbrCatL 10’ Inhibition ([2]; 10’ (pre-incubation time)): 30%
2 | CC(=O)NCC1CN(c2ccc(-c3ccc(CO)cc3)c(F)c2)C(=O)O1 (stereo not shown) [MMV688508] | -0.1% | -2% | -0.7% | -5% | 
3 | O=C(OCc1ccccc1)N1CCC(c2cc(-c3ccncc3)c(-c3ccc(F)cc3)[nH]2)CC1 [MMV688509] |  |  |  |  | Cruzain 0’ Inhibition ([1]; 0’ (pre-incubation time)): -3.8%; Cruzain 10’ Inhibition ([1]; 10’ (pre-incubation time)): 3.8%; TbrCatL 0’ Inhibition ([2]; 0’ (pre-incubation time)): -13%; TbrCatL 10’ Inhibition ([2]; 10’ (pre-incubation time)): -13%
4 | N=C(N)c1ccc(-c2cc(-c3ccccc3)on2)cc1 [MMV688514] | 14% | 13% | 20% | -6.6% | 
5 | CC(C)(C)C(=O)N(CCCCCCN1C[C@H](O)[C@@H](O)[C@H](O)[C@H]1CO)C1CCCCCC1 [MMV688543] |  |  |  |  | Cruzain Inhibition 0’ [1, 5]: -1.2%; Cruzain Inhibition 10’ [1, 6]: 7.5%; TbrCatL Inhibition 0’ [2, 5]: -7%; TbrCatL Inhibition 10’ [2, 6]: 1.7%
6 | COc1ccc(C2=NCCN2)cc1-c1cn(-c2cccc(C3=NCCN3)c2)nn1 [MMV688547] | 10% | 13% | 6% | 4% | 
7 | CC(C)(C)n1nc(-c2ccccc2)c2c(N)ncnc21 [MMV688548] | 8% | 10% | 20% | 12% | 
8 | CCc1ccccc1-n1c(C)cn2c3c(=O)n(C(C(=O)OC)C(C)C)c(=O)n(C)c3nc12 (stereo not shown) [MMV688550] |  |  |  |  | Cruzain Inhibition 0’ [1, 5]: -4.3%; Cruzain Inhibition 10’ [1, 6]: 3.2%; TbrCatL Inhibition 0’ [2, 5]: -16%; TbrCatL Inhibition 10’ [2, 6]: 0.4%
9 | Cc1nn(C(=O)Nc2cccc(C(F)(F)F)c2)c(C)c1Sc1ncccn1 [MMV688552] |  |  |  |  | Cruzain Inhibition 0’ [1, 5]: 2.3%; Cruzain Inhibition 10’ [1, 6]: 0.1%; TbrCatL Inhibition 0’ [2, 5]: -0.1%; TbrCatL Inhibition 10’ [2, 6]: 5%
10 | O=C(NCc1ccoc1)N1CCN(Cc2ccc3c(c2)OCO3)CC1 [MMV688553] | -7% | 0.9% | -1.2% | -6.4% | 
11 | CNc1snc(C)c1C(=O)NCCOc1ccc(OC)cc1 [MMV688554] | -8% | -4.6% | -7% | -8% | 
12 | O=C(NCc1ccco1)N1CCN(Cc2ccc(Cl)s2)CC1 [MMV688555] | -0.7% | 0.5% | 6% | 0.9% | 
13 | NCC(c1cccs1)S(=O)(=O)c1ccccc1 (stereo not shown) [MMV688557] |  |  |  |  | Cruzain Inhibition 0’ [1, 5]: 2.3%; Cruzain Inhibition 10’ [1, 6]: 0.1%; TbrCatL Inhibition 0’ [2, 5]: -0.6%; TbrCatL Inhibition 10’ [2, 6]: 1.2%
14 | CN1CCC(c2cc(-c3ccncc3)c(-c3ccc(F)cc3)[nH]2)CC1 [MMV688703] |  |  |  |  | Cruzain 0’ Inhibition ([1]; 0’ (pre-incubation time)): 3.7%; Cruzain 10’ Inhibition ([1]; 10’ (pre-incubation time)): 1.9%; TbrCatL 0’ Inhibition ([2]; 0’ (pre-incubation time)): 6%; TbrCatL 10’ Inhibition ([2]; 10’ (pre-incubation time)): 3.6%
15 | Cc1cc2nc(NC(=O)C(C)(C)C)nc(Cl)c2n1Cc1ccc(Cl)cc1 [MMV688704] | 11% | 10% | 16% | 16% | 
16 | CO/N=C(/C(=O)OC)c1ccccc1CO/N=C(/C)c1cccc(C(F)(F)F)c1 [MMV688754] |  |  |  |  | Cruzain Inhibition 0’ [1, 5]: 0.9%; Cruzain Inhibition 10’ [1, 6]: 3.5%; TbrCatL Inhibition 0’ [2, 5]: -4%; TbrCatL Inhibition 10’ [2, 6]: -1.2%
17 | O=[N+]([O-])c1cn2c(n1)OC[C@@H](OCc1ccc(OC(F)(F)F)cc1)C2 [MMV688755] |  |  |  |  | Cruzain Inhibition 0’ [1, 5]: 3%; Cruzain Inhibition 10’ [1, 6]: 6.6%; TbrCatL Inhibition 0’ [2, 5]: -0.5%; TbrCatL Inhibition 10’ [2, 6]: 4%
18 | CC(=O)NC[C@H]1CN(c2ccc(N3CCSCC3)c(F)c2)C(=O)O1 [MMV688756] | 14% | 11% | 10% | 7% | 
19 | CS(=O)(=O)c1ccc(C(=O)N(CC2CCCO2)c2nc3ccccc3s2)cc1[N+](=O)[O-] (stereo not shown) [MMV688761] | -0.3% | 5.7% | -0.9% | 1.2% | 
20 | c1ccc(-c2[nH]c3ccccc3c2C(c2ccccn2)N2CCCC2)cc1 (stereo not shown) [MMV688762] | 3.2% | 1% | 3.2% | 1.8% | 
21 | CNc1nnc(Sc2cnn(-c3ccccc3)c(=O)c2Cl)s1 [MMV688763] | 6% | 9% | 7.5% | 1.7% | 
22 | COc1ccc(-c2onc(C(F)(F)F)c2-c2ccc(Cl)cc2)c(O)c1 [MMV688766] |  |  |  |  | Cruzain 0’ Inhibition ([1]; 0’ (pre-incubation time)): 1%; Cruzain 10’ Inhibition ([1]; 10’ (pre-incubation time)): -2.5%; TbrCatL 0’ Inhibition ([2]; 0’ (pre-incubation time)): 0%; TbrCatL 10’ Inhibition ([2]; 10’ (pre-incubation time)): -5%

Row | Structure (SMILES) | Cruzain Inhibition 0’ [1, 3] | Cruzain Inhibition 10’ [1, 4] | TbrCatL Inhibition 0’ [2, 3] | TbrCatL Inhibition 10’ [2, 4] | also measured
23 | Cc1[nH]c2ccccc2c1C(c1cccs1)N1CCN(C)CC1 (stereo not shown) [MMV688768] | 2.7% | 9% | 0.9% | 2.4% | 
24 | Cc1ccccc1C(=O)N1NC(=Nc2ccccc2)SC1(C)C [MMV688771] |  |  |  |  | Cruzain 0’ Inhibition ([1]; 0’ (pre-incubation time)): 29%; Cruzain 10’ Inhibition ([1]; 10’ (pre-incubation time)): 8%; TbrCatL 0’ Inhibition ([2]; 0’ (pre-incubation time)): -5%; TbrCatL 10’ Inhibition ([2]; 10’ (pre-incubation time)): 0.3%
25 | O=C(Cn1ccnc1[N+](=O)[O-])NCc1ccccc1 [MMV688773] | 19% | 4% | 4.3% | 3.7% | 
26 | CC[C@@H]([C@H](C)O)n1ncn(-c2ccc(N3CCN(c4ccc(OC[C@@H]5CO[C@@](Cn6cncn6)(c6ccc(F)cc6F)C5)cc4)CC3)cc2)c1=O [MMV688774] | 9% | 10% | 3.6% | 8% | 
27 | Cc1cccnc1NC(=O)c1cccc(OCc2c(C)noc2C)c1 [MMV688793] | 16% | 10% | 14% | 10% | 
28 | O=C(NCCc1ccn(-c2ccccc2)n1)C1CCCCC1 [MMV688795] |  |  |  |  | Cruzain 0’ Inhibition ([1]; 0’ (pre-incubation time)): 3.2%; Cruzain 10’ Inhibition ([1]; 10’ (pre-incubation time)): 4%; TbrCatL 0’ Inhibition ([2]; 0’ (pre-incubation time)): 5%; TbrCatL 10’ Inhibition ([2]; 10’ (pre-incubation time)): 5.4%
29 | O=C(NCc1nnc2n1CCCCC2)c1ccc(-c2ccc(F)cc2)o1 [MMV688796] | 15% | 7% | 7% | -2.4% | 
30 | CC1CCCCN1C(=O)NCCc1coc(-c2ccc(F)cc2)n1 (stereo not shown) [MMV688797] | 15% | 10% | 16% | 15% | 
31 | CS(=O)(=O)c1ccccc1C(=O)N(Cc1ccccc1)c1ccccc1 [MMV688798] | 13% | 1.2% | 1.5% | -1.9% | 
32 | COc1ccc2nccc(NC(=O)C3CCN(CCc4ccc(Cl)cc4)CC3)c2n1 [MMV688844] |  |  |  |  | Cruzain 0’ Inhibition ([1]; 0’ (pre-incubation time)): 1.4%; Cruzain 10’ Inhibition ([1]; 10’ (pre-incubation time)): -1.1%; TbrCatL 0’ Inhibition ([2]; 0’ (pre-incubation time)): 4%; TbrCatL 10’ Inhibition ([2]; 10’ (pre-incubation time)): -1.5%
33 | O=C(N[C@H](Cc1ccccc1)C(=O)Nc1ccccc1N1CCOCC1)c1cccs1 [MMV688845] |  |  |  |  | Cruzain 0’ Inhibition ([1]; 0’ (pre-incubation time)): 1%; Cruzain 10’ Inhibition ([1]; 10’ (pre-incubation time)): 4.5%; TbrCatL 0’ Inhibition ([2]; 0’ (pre-incubation time)): -0.3%; TbrCatL 10’ Inhibition ([2]; 10’ (pre-incubation time)): 2.3%
34 | Cc1ccccc1CN1CCC(O)(c2ccc(Cl)c(C(F)(F)F)c2)CC1 [MMV688846] | 10% | 3% | 2.5% | -17% | 
35 | CC(C)(C)n1nc(Cc2ccc(F)c(Cl)c2)c2c(N)ncnc21 [MMV688852] | 6% | 0.5% | -2.7% | -13% | 
36 | CCOc1ccc2cc(-c3nn(C(C)(C)C)c(N)c3C(N)=O)cnc2c1 [MMV688853] | 5.4% | 4% | 7% | -4% | 
37 | CCOc1ccc2cc(-c3nn(CC4CCN(C)CC4)c4ncnc(N)c34)ccc2c1 [MMV688854] | 27% | 11% | 2.7% | -5% | 
38 | CN1CCN(c2cc(-c3ccc(F)cc3)nc(-c3ccncc3)n2)CC1 [MMV688888] | 18% | 14% | 19% | 9% | 
39 | Clc1ccc(CCNc2cc(-c3ccccc3)nc3ncnn23)cc1 [MMV688889] | 15% | 14% | 20% | 13% | 
40 | COc1cc(Br)cc2cc(C(=O)Nc3cccc(C(F)(F)F)c3)c(=O)oc12 [MMV688891] |  |  |  |  | Cruzain 0’ Inhibition ([1]; 0’ (pre-incubation time)): -4.4%; Cruzain 10’ Inhibition ([1]; 10’ (pre-incubation time)): -0.7%; TbrCatL 0’ Inhibition ([2]; 0’ (pre-incubation time)): 0%; TbrCatL 10’ Inhibition ([2]; 10’ (pre-incubation time)): -2.6%
41 | OC[C@H]1O[C@@H](n2c3ccc(Cl)cc3c3c(-c4cc5ccccc5o4)ncnc32)C(O)[C@H]1O (stereo partly shown) [MMV688921] |  |  |  |  | Cruzain 0’ Inhibition ([1]; 0’ (pre-incubation time)): 4.7%; Cruzain 10’ Inhibition ([1]; 10’ (pre-incubation time)): 11%; TbrCatL 0’ Inhibition ([2]; 0’ (pre-incubation time)): 5.5%; TbrCatL 10’ Inhibition ([2]; 10’ (pre-incubation time)): 4.4%
42 | CCc1nn(C)c(C(=O)NCc2ccc(Oc3ccc(C)cc3)cc2)c1Cl [MMV688934] | 15% | 7.4% | 18% | 14% | 
43 | O=C(c1ccco1)N(CCCn1ccnc1)c1nc2c(Cl)cccc2s1 [MMV688936] | 5.6% | -0.2% | 19% | 0.6% | 

— paper PMC9967275, “Screening the Pathogen Box to Discover and Characterize New Cruzain and TbrCatL Inhibitors” (Pathogens, 2023)
